Measurements published in patent US11549123B2, “Plant EPSP synthases and methods of use” (PIONEER HI-BRED INTERNATIONAL, INC., priority 2015, dated 2023).

How the values were obtained:
[1] = target: Zea mays EPSPS variant 241A 278G (Zea mays, UniProt O24566, K240A/T277G); assay: EPSPS reaction rate with or without 10 uM glyphosate, 241A 278G; format: biochemical; details: pH 7; read-out: Reaction rate with 10 μM glyph, % no glyph; also: 50 µM PEP and S3P
[2] = target: T1, Zea mays EPSPS variant Zm-P107L (Zea mays, UniProt O24566, P106L); assay: Rapid two-rate method for (kcat/KM)*KI, Zm-P107L; format: biochemical
T1 construct: native maize plus P107L; E. coli BL21(DE3), Ni-NTA purified
T1 sequence (O24566 entry or part of it P106L): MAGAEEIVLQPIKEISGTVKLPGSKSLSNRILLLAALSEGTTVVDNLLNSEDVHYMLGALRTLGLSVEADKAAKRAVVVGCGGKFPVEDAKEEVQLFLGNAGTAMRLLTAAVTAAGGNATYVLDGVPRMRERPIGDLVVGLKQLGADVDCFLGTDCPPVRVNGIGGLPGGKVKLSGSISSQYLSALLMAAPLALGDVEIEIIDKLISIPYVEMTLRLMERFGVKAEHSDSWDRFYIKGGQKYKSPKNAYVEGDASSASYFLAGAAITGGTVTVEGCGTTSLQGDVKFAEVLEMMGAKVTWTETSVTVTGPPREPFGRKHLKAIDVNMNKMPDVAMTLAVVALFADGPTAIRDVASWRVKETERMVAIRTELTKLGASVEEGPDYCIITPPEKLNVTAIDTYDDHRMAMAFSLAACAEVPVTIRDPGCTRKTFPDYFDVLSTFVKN
From the text: There are several practical considerations for accurately estimating (kcat/KM)*KI with the rapid method. […] 2) The inhibitor concentration must be adjusted so as to obtain a degree of inhibition that minimally amplifies the error in the term v0-vi in Equation 3. If inhibition is too little, v0-vi will be small, and the error in the multiplier vi×v0/(v0-vi) will be large. […] 3) Substrate concentration should be set at the approximate KM of the parental variant(s), subject to the sensitivity of the assay. High substrate concentration obscures sensitivity to the inhibitor and reduces stringency for capturing improvements in KM. Depending on the necessity for speed, there exists opportunity for customizing enzyme and inhibitor concentrations. […] The rapid method was repeated for those and obtained data that correlated better with data obtained by substrate saturation analysis. For screening purposes however, that correlation step is not necessary. Conditions can be set so that variants with a pre-determined minimal fitness level are accurately quantified.
In Table 15, parameters above the heavy line for the rapid method were obtained under standard conditions. For variants shown below the heavy line, the rapid analysis was repeated with enzyme or glyphosate concentrations adjusted as needed to generate sufficient signal within the limits for linear initial rates.

[3] = target: T2, Zea mays EPSPS variant Zm-H6 (868-H6) (Zea mays, UniProt O24566, A1R/A3W/A415G/A71Q/D401G/E301S/E390G/G101A/I207L/K83R/L97C/T278A/T360S/T440Q/V437R); assay: Substrate saturation analysis with glyphosate (Example 8), Zm-H6; format: biochemical
T2 sequence (O24566 with tags, fused parts or gaps A1R/A3W/A71Q/K83R/L97C/G101A/I207L/T278A/E301S/T360S/E390G/D401G/A415G/V437R/T440Q): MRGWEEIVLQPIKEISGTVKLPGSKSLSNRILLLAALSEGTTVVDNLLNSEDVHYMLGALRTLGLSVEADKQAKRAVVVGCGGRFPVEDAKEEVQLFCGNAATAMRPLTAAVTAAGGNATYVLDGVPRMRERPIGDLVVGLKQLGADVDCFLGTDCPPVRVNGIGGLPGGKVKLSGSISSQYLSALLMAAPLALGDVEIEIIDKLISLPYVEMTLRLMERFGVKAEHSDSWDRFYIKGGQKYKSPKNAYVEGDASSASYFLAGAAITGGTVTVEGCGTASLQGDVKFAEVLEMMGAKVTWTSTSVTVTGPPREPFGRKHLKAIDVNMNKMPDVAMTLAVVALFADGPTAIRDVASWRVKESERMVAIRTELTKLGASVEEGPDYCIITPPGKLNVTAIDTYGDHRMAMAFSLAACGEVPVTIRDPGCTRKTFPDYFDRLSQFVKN
From the text: Generally, (kcat/KM)*KI is obtained by performing substrate saturation analysis in the absence and presence of inhibitor. However, that analysis takes longer. […] To validate the method, (kcat/KM)*KI was quantified using both methods—traditional (saturation) and the instant method (rapid), for variants of maize 5-enolpyruvylshikimate-3-phosphate synthase (EPSPS) and its competitive inhibitor, glyphosate.
The amino acid sequence of mature Zea mays EPSPS was obtained from GenBank entry CAA44974.1 (SEQ ID NO:2). A nucleotide sequence was created to add an N-terminal methionine and to optimize codon usage for expression in E. coli. The synthesized gene was cloned into an expression vector that provides a T7 promoter driving expression of the protein and a 10× N-terminal histidine tag. Variants selected for this study include native maize EPSPS and variants generated by a gene shuffling cascade described herein. […] Protein concentration was determined by absorbance at 280 nm using an extinction coefficient of 0.676 OD/mg/m L. The proteins were normalized to 0.5 mg/mL for assay.
EPSPS activity was determined by quantifying the phosphate generated by the reaction. […] The absorbance change that occurs was monitored continuously at 360 nm, where the extinction is 11,200 M-1 cm-1, with a Spectramax plate reader (Molecular Devices). […]

[4] = test system: Arabidopsis thaliana Col-0; assay: Glyphosate spray (Touchdown) tolerance of Arabidopsis transformed with maize EPSPS constructs; format: in vivo
[5] = target: T3, Zea mays EPSPS variant Zm-A189T (Zea mays, UniProt O24566, A188T); assay: Substrate saturation kinetic analysis with glyphosate, Zm-A189T; format: biochemical
T3 sequence (O24566 with tags, fused parts or gaps A188T): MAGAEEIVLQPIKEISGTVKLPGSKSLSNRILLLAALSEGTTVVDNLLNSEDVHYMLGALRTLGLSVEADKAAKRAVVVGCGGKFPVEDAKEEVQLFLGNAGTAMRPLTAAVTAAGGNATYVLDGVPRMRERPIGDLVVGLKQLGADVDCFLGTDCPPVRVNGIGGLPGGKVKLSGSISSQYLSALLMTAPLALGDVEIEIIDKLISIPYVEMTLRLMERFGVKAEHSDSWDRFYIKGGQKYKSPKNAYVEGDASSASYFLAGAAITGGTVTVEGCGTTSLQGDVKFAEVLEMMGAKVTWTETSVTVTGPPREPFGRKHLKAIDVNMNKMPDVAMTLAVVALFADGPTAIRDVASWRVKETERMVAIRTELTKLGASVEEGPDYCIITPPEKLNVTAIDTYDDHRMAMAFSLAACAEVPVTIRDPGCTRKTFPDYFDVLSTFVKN

Chain of Zea mays EPSPS variant 241A 278G (O24566 entry or part of it K240A/T277G): as the sequence (O24566 entry or part of it P106L) above, with L107P, K241A, T278G counted along it

## O=C(O)CNCP(=O)(O)O [glyphosate, N-phosphonomethylglycine]
[1]
  activity at 10 µM: 3.75%
[2]; rapid method repeated, [E] 0.014 uM, [Gly] 10 uM
  (kcat/KM)*KI: 91
[2]; rapid method, [E] 0.07 uM, [Gly] 1000 uM
  (kcat/KM)*KI: 111
[3]
  Ki: 381 µM
[3]; substrate saturation, Zm-H6
  (kcat/KM)*KI: 3660
[4]; plants transformed with UbiQ10 promoter and H6 variant
  plant injury and growth inhibition compared to unsprayed controls: no visible injury or growth inhibition
[4]; untransformed plants, 1.26 kg/Ha spray
  growth after treatment: did not grow at all
[4]; untransformed plants, 1.26 kg/Ha spray, by 10 days
  plant injury: chlorosis and imminent necrosis
[5]
  Ki: 337 µM
[5]; substrate saturation, Zm-A189T
  (kcat/KM)*KI: 283
